{"source": "patent US11203601B2", "about": "“Tricyclic compounds as glycogen synthase kinase 3 (GSK3) inhibitors and uses thereof” (The Broad Institute, Inc., priority 2017, dated 2021)", "experiment_in_all_cases": "Carna kinome panel", "type_in_all_cases": "biochemical", "settings_in_all_cases": "read-out: % Inhibition at 10 μM of the test compound", "key": {"TIE2": {"target": "TIE2 (Homo sapiens (Human), UniProt Q02763)", "sequence (Q02763 23-1124)": "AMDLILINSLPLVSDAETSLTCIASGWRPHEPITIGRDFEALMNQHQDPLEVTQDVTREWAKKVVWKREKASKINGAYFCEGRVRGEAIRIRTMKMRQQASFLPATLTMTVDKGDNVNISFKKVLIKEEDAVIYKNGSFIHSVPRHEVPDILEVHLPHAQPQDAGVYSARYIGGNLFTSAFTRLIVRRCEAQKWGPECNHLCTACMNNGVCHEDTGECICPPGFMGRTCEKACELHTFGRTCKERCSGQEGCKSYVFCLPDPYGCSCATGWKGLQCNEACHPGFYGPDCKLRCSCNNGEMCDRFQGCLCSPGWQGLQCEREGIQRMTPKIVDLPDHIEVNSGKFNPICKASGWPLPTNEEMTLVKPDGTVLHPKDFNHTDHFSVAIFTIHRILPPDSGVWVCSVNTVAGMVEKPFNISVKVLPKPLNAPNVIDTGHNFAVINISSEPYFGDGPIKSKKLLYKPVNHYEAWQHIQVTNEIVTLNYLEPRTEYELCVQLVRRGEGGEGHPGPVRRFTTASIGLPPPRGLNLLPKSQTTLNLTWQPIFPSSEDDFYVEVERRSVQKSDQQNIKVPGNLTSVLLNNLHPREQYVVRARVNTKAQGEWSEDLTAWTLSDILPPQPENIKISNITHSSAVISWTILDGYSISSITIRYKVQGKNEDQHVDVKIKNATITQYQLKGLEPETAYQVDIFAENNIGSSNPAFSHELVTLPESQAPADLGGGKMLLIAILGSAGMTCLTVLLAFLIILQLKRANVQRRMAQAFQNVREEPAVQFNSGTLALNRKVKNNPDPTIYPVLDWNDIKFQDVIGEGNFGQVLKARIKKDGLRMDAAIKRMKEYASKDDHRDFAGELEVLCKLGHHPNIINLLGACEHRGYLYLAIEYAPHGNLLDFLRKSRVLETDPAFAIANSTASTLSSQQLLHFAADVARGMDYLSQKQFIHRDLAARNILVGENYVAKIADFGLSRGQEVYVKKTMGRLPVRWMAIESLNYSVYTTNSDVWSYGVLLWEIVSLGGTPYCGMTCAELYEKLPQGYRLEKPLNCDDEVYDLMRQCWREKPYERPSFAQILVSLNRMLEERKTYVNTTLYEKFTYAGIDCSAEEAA"}, "MAP2K2_Cascade": {"target": "MAP2K2_Cascade (Homo sapiens (Human), UniProt P36507)"}, "SIK": {"target": "SIK (Homo sapiens (Human), UniProt P57059)"}, "LATS2": {"target": "LATS2 (Homo sapiens (Human), UniProt Q9NRM7)"}, "MAP3K5_Cascade": {"target": "MAP3K5_Cascade (Homo sapiens (Human), UniProt Q99683)"}, "TRKA": {"target": "TRKA (Homo sapiens (Human), UniProt P04629)"}, "TYRO3": {"target": "TYRO3 (Homo sapiens (Human), UniProt Q06418)"}, "JNK3": {"target": "JNK3 (Homo sapiens (Human), UniProt P53779)"}, "p70S6K": {"target": "p70S6K (Homo sapiens (Human), UniProt P23443)"}, "PDGFRβ": {"target": "PDGFRβ (Homo sapiens (Human), UniProt P09619)"}, "MINK": {"target": "MINK (Homo sapiens (Human), UniProt Q8N4C8)"}, "DDR1": {"target": "DDR1 (Homo sapiens (Human), UniProt Q08345)", "sequence (Q08345 19-913, species assumed)": "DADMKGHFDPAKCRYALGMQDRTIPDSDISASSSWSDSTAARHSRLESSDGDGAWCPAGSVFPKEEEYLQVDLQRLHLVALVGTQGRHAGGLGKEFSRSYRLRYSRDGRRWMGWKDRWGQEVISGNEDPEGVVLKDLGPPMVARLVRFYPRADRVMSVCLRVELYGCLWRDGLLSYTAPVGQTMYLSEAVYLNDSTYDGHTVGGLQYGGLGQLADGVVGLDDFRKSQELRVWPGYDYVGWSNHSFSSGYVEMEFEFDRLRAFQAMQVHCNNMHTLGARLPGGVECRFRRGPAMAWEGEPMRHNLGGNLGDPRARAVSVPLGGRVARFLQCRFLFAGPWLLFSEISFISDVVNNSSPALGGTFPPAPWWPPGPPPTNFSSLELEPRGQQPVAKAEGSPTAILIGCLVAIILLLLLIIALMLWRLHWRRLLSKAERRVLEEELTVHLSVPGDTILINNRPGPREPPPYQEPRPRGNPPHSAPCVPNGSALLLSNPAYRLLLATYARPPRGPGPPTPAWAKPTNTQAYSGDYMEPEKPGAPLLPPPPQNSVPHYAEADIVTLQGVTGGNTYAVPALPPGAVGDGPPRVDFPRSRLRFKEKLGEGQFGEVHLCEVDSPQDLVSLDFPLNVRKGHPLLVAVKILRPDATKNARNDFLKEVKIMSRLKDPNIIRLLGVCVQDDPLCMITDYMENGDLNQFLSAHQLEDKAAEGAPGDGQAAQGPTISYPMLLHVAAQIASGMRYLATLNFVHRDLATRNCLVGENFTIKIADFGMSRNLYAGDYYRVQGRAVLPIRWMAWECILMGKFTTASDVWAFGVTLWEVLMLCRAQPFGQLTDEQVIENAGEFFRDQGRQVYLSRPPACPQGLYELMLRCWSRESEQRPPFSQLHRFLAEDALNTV"}, "p38α": {"target": "p38α (Homo sapiens (Human), UniProt Q16539)"}, "p70S6Kβ": {"target": "p70S6Kβ (Homo sapiens (Human), UniProt Q9UBS0)"}, "Erk2": {"target": "Erk2 (Homo sapiens (Human), UniProt P28482)", "sequence (P28482 whole entry, looked up)": "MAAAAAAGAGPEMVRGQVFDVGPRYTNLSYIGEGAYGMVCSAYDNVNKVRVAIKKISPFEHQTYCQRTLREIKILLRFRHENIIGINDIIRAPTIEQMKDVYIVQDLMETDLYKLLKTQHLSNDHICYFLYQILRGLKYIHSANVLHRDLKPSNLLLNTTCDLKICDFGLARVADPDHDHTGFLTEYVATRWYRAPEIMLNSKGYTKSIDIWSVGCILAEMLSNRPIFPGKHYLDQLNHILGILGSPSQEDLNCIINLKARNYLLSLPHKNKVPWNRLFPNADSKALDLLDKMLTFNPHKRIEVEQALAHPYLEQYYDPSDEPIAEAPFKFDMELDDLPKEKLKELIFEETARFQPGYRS"}, "HGK": {"target": "HGK (Homo sapiens (Human), UniProt O95819)"}, "KDR": {"target": "KDR (Homo sapiens (Human), UniProt P35968)"}, "EPHB1": {"target": "EPHB1 (Homo sapiens (Human), UniProt P54762)"}, "JAK2": {"target": "JAK2 (Homo sapiens (Human), UniProt O60674)"}, "JNK2": {"target": "JNK2 (Homo sapiens (Human), UniProt P45984)"}, "RET(Y791F)": {"target": "RET(Y791F) (Homo sapiens (Human), UniProt P07949, Y791F)"}, "RSK1": {"target": "RSK1 (Homo sapiens (Human), UniProt Q15418)"}, "CAMK1α": {"target": "CAMK1α (Homo sapiens (Human), UniProt Q14012)"}, "AurA/TPX2": {"target": "AurA/TPX2 (Homo sapiens (Human), UniProt O14965)"}, "FGFR3(K650E)": {"target": "FGFR3(K650E) (Homo sapiens (Human), UniProt P22607, K650E)"}, "FGFR3(K650M)": {"target": "FGFR3(K650M) (Homo sapiens (Human), UniProt P22607, K650M)"}, "KIT(D816V)": {"target": "KIT(D816V) (Homo sapiens (Human), UniProt P10721, D816V)"}, "PHKG2": {"target": "PHKG2 (Homo sapiens (Human), UniProt P15735)"}, "TSSK3": {"target": "TSSK3 (Homo sapiens (Human), UniProt Q96PN8)", "sequence (Q96PN8 whole entry)": "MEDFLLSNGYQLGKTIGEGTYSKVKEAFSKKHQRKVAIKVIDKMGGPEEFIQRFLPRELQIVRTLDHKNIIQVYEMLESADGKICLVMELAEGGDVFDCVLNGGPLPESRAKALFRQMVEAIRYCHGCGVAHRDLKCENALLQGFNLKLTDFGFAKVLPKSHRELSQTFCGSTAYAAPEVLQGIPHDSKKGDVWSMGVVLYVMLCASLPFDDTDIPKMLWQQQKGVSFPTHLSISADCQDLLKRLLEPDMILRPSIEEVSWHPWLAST"}, "CaMK2γ": {"target": "CaMK2γ (Homo sapiens (Human), UniProt Q13555)", "sequence (Q13555 whole entry)": "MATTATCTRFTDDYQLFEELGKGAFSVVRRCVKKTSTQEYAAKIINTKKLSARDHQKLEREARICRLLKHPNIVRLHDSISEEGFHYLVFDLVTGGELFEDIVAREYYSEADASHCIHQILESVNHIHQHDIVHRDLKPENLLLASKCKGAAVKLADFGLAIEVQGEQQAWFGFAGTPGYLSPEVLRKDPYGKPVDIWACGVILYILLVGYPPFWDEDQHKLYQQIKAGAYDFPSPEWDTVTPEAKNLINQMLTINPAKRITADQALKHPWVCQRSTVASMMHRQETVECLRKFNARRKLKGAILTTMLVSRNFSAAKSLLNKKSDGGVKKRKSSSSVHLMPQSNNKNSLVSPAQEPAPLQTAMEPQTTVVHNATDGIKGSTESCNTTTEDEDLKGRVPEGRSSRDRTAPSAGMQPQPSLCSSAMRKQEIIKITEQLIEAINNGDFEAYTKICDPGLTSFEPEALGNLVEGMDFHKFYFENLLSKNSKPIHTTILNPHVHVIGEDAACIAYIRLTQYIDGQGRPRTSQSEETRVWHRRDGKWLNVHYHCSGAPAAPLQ"}, "PKACγ": {"target": "PKACγ (Homo sapiens (Human), UniProt P22612)"}, "PEK": {"target": "PEK (Homo sapiens (Human), UniProt Q9NZJ5)"}, "MST1": {"target": "MST1 (Homo sapiens (Human), UniProt Q13043)"}, "JNK1": {"target": "JNK1 (Homo sapiens (Human), UniProt P45983)"}, "PKCβ1": {"target": "PKCβ1 (Homo sapiens (Human), UniProt P05771)", "sequence (P05771 whole entry)": "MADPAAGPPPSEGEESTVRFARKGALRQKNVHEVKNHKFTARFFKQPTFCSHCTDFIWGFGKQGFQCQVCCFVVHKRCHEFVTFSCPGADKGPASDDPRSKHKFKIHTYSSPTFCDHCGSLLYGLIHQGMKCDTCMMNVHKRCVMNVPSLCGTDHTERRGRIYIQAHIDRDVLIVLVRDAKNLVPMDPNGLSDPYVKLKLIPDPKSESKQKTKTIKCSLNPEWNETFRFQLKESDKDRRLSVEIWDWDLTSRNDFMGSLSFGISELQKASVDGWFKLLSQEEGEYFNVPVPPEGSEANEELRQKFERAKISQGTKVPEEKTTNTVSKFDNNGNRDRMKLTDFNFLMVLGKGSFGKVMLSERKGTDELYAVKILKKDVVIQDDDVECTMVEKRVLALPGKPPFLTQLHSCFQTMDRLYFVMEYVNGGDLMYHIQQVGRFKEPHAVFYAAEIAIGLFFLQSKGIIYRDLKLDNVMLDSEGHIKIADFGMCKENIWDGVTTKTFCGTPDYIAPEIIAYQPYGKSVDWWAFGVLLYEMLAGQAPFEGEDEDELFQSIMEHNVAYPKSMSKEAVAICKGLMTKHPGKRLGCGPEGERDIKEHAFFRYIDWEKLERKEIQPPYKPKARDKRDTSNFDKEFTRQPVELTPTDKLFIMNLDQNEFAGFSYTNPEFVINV"}, "MET(D1228H)": {"target": "MET(D1228H) (Homo sapiens (Human), UniProt P08581, D1228H)"}, "NuaK1": {"target": "NuaK1 (Homo sapiens (Human), UniProt O60285)"}, "PKCα": {"target": "PKCα (Homo sapiens (Human), UniProt P17252)"}, "BRSK1": {"target": "BRSK1 (Homo sapiens (Human), UniProt Q8TDC3)"}, "EGFR(T790M/L858R)": {"target": "EGFR(T790M/L858R) (Homo sapiens (Human), UniProt P00533, L858R/T790M)", "sequence (P00533 25-1210 T790M/L858R)": "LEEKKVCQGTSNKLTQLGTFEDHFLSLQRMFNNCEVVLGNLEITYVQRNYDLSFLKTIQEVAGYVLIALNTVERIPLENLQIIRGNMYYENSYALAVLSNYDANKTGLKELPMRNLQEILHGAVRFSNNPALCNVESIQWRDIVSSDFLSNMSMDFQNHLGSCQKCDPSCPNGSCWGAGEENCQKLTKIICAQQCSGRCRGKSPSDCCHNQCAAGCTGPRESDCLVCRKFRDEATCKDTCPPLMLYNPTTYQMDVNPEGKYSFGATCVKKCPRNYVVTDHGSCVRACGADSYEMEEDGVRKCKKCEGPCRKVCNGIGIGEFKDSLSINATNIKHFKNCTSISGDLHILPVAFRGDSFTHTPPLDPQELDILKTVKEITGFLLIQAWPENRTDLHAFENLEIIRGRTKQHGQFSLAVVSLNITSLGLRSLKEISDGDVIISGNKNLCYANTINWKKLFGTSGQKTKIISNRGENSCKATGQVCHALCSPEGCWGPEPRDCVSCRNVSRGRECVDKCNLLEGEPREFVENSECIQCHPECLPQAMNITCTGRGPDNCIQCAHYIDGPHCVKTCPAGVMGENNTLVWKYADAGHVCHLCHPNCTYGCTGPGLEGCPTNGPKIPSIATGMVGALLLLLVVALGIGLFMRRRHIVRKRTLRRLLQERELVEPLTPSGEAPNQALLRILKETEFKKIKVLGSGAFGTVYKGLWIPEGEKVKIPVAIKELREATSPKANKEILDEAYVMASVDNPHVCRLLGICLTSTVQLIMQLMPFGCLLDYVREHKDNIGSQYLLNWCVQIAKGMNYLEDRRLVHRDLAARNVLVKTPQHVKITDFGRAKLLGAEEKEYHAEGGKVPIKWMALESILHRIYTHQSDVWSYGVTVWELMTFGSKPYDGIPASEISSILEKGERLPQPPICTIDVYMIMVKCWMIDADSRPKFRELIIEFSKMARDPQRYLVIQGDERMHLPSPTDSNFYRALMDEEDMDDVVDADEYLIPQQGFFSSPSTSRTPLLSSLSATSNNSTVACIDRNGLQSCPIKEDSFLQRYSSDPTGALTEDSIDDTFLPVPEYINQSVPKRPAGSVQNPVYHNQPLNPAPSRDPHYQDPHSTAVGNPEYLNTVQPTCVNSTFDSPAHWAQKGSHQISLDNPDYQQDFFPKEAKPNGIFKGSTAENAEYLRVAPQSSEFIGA"}}}
{"smiles": "CCC1(c2ccccc2)C2=C(CC(C)(C)CC2=O)Nc2ncsc21", "note": "(stereo not shown) [Compound 1, 9-Ethyl-6,6-dimethyl-9-phenyl-5,6,7,9-tetrahydrothiazolo[4,5-b]quinolin-8(4H)-one]", "values": [{"measurement": "inhibition at 10 µM", "setting": "TIE2", "value": 11.1, "unit": "%"}, {"measurement": "inhibition at 10 µM", "setting": "MAP2K2_Cascade", "value": 6.4, "unit": "%"}, {"measurement": "inhibition at 10 µM", "setting": "SIK", "value": 5.6, "unit": "%"}, {"measurement": "inhibition at 10 µM", "setting": "LATS2", "value": 5.4, "unit": "%"}, {"measurement": "inhibition at 10 µM", "setting": "MAP3K5_Cascade", "value": 5.4, "unit": "%"}, {"measurement": "inhibition at 10 µM", "setting": "TRKA", "value": 5.4, "unit": "%"}, {"measurement": "inhibition at 10 µM", "setting": "TYRO3", "value": 3.8, "unit": "%"}, {"measurement": "inhibition at 10 µM", "setting": "JNK3", "value": 3.1, "unit": "%"}, {"measurement": "inhibition at 10 µM", "setting": "p70S6K", "value": 2.9, "unit": "%"}, {"measurement": "inhibition at 10 µM", "setting": "PDGFRβ", "value": 2.5, "unit": "%"}, {"measurement": "inhibition at 10 µM", "setting": "MINK", "value": 1.5, "unit": "%"}, {"measurement": "inhibition at 10 µM", "setting": "DDR1", "value": 1.4, "unit": "%"}, {"measurement": "inhibition at 10 µM", "setting": "p38α", "value": 1.1, "unit": "%"}, {"measurement": "inhibition at 10 µM", "setting": "p70S6Kβ", "value": 0.5, "unit": "%"}, {"measurement": "inhibition at 10 µM", "setting": "Erk2", "value": 0.5, "unit": "%"}, {"measurement": "inhibition at 10 µM", "setting": "HGK", "value": 0.4, "unit": "%"}, {"measurement": "inhibition at 10 µM", "setting": "KDR", "value": 0.2, "unit": "%"}, {"measurement": "inhibition at 10 µM", "setting": "EPHB1", "value": -0.4, "unit": "%"}, {"measurement": "inhibition at 10 µM", "setting": "JAK2", "value": -0.9, "unit": "%"}, {"measurement": "inhibition at 10 µM", "setting": "JNK2", "value": -1.5, "unit": "%"}, {"measurement": "inhibition at 10 µM", "setting": "RET(Y791F)", "value": -1.6, "unit": "%"}, {"measurement": "inhibition at 10 µM", "setting": "RSK1", "value": -2, "unit": "%"}, {"measurement": "inhibition at 10 µM", "setting": "CAMK1α", "value": -2.6, "unit": "%"}, {"measurement": "inhibition at 10 µM", "setting": "AurA/TPX2", "value": -2.7, "unit": "%"}, {"measurement": "inhibition at 10 µM", "setting": "FGFR3(K650E)", "value": -3, "unit": "%"}, {"measurement": "inhibition at 10 µM", "setting": "FGFR3(K650M)", "value": -4, "unit": "%"}, {"measurement": "inhibition at 10 µM", "setting": "KIT(D816V)", "value": -4.8, "unit": "%"}, {"measurement": "inhibition at 10 µM", "setting": "PHKG2", "value": -5, "unit": "%"}, {"measurement": "inhibition at 10 µM", "setting": "TSSK3", "value": -5.1, "unit": "%"}, {"measurement": "inhibition at 10 µM", "setting": "CaMK2γ", "value": -5.2, "unit": "%"}, {"measurement": "inhibition at 10 µM", "setting": "PKACγ", "value": -5.6, "unit": "%"}, {"measurement": "inhibition at 10 µM", "setting": "PEK", "value": -6, "unit": "%"}, {"measurement": "inhibition at 10 µM", "setting": "MST1", "value": -6.6, "unit": "%"}, {"measurement": "inhibition at 10 µM", "setting": "JNK1", "value": -7.3, "unit": "%"}, {"measurement": "inhibition at 10 µM", "setting": "PKCβ1", "value": -7.4, "unit": "%"}, {"measurement": "inhibition at 10 µM", "setting": "MET(D1228H)", "value": -7.7, "unit": "%"}, {"measurement": "inhibition at 10 µM", "setting": "NuaK1", "value": -9.2, "unit": "%"}, {"measurement": "inhibition at 10 µM", "setting": "PKCα", "value": -11, "unit": "%"}, {"measurement": "inhibition at 10 µM", "setting": "BRSK1", "value": -12.9, "unit": "%"}, {"measurement": "inhibition at 10 µM", "setting": "EGFR(T790M/L858R)", "value": -15.5, "unit": "%"}]}
